Test results as given in article PMC314469, “Protein Interaction Networks by Proteome Peptide Scanning” (PLoS Biology, 2004).

Test system: Myo5 SH3 domain
Assay: SPOT analysis of cellulose-bound peptides (WISE), Myo5 SH3 domain (Dataset S4)
Format: binding, Saccharomyces cerevisiae
Conditions: for The normalized value in BLU units: Myo5 SH3 domain
[1] = SPOT analysis of cellulose-bound peptides probed with Myo5 SH3 domain, normalized value
[2] = SPOT analysis of membrane-synthesized peptides probed with Myo5 SH3 domain, normalized value
[3] = SPOT analysis of membrane-bound peptides, normalized value (see methods)
[4] = SPOT analysis of cellulose-bound 14-mer yeast proteome peptides, normalized value, mean where the peptide was synthesized more than once

YFKNMSNPKIPATK
The normalized value in BLU units (SPOT analysis, Myo5 SH3) [1]: 127.8 BLU

IAGQRTFPEDPNYP
The normalized value in BLU units (SPOT analysis, Myo5 SH3) [2]: 171.7 BLU

TTTIKNRPVPPPLP
The normalized value in BLU units (SPOT analysis, Myo5 SH3) [2]: 1868.9 BLU

YEKALHFPAGPKST
The normalized value in BLU units (SPOT analysis, Myo5 SH3) [1]: 147.4 BLU

GETRWRIPYLPLDP
The normalized value in BLU units (SPOT analysis, Myo5 SH3) [1]: 118.4 BLU

WEALKSVPIPPRKN
The normalized value in BLU units [3]: 379.0 BLU

HLARYIFPPNPVFH
The normalized value in BLU units (SPOT analysis, Myo5 SH3) [1]: 279.4 BLU

LAGIRLVPVLPILL
The normalized value in BLU units (SPOT analysis, Myo5 SH3) [2]: 152.2 BLU

PLAPLPPPPPPSVA
The normalized value in BLU units (SPOT analysis, Myo5 SH3) [1]: 4747.6 BLU

RLQKLDDPKSPYQC
The normalized value in BLU units [4]: 127.2 BLU

DFNKFERPNIPVEE
The normalized value in BLU units [4]: 212.3 BLU

GPSQFAPPPPPPGV
The normalized value in BLU units [4]: 20435.9 BLU

EVENKLRPDLPVKN
The normalized value in BLU units [3]: 40.7 BLU

SAENLIQPTAPIRD
The normalized value in BLU units [4]: 56.4 BLU

HPYMMVYPMSPPPP
The normalized value in BLU units (SPOT analysis, Myo5 SH3) [1]: 562.8 BLU

DVNHRYPPMAPTTV
The normalized value in BLU units (SPOT analysis, Myo5 SH3) [2]: 175.5 BLU

TARNKKSPGGPRQR
The normalized value in BLU units (SPOT analysis, Myo5 SH3) [2]: 593.2 BLU

GEFFHCSPNIPHYA
The normalized value in BLU units [4]: 271.2 BLU

ALDNFTLPGTPGFP
The normalized value in BLU units [4]: 180.7 BLU

QASMLRRPSLPHID
The normalized value in BLU units (SPOT analysis, Myo5 SH3) [1]: 1102.4 BLU

INIAKAHPNFPIAL
The normalized value in BLU units [3]: 195.5 BLU

AADSHAIPVDPPSY
The normalized value in BLU units (SPOT analysis, Myo5 SH3) [1]: 37.9 BLU

EETEMLAPKLPEEN
The normalized value in BLU units (SPOT analysis, Myo5 SH3) [1]: 81.6 BLU

IEFDLSKPFTPFQQ
The normalized value in BLU units (SPOT analysis, Myo5 SH3) [1]: 134.1 BLU

KKNDRPSPLKPIQH
The normalized value in BLU units [3]: 340.9 BLU

FLTVYILPKNPFRV
The normalized value in BLU units [4]: 1470.4 BLU

RKSDKNAPSVPQVD
The normalized value in BLU units [3]: 394.6 BLU

NIPTKSPPKSPKHK
The normalized value in BLU units (SPOT analysis, Myo5 SH3) [2]: 12462.9 BLU

PPEGFPEPLNPTNF
The normalized value in BLU units (SPOT analysis, Myo5 SH3) [1]: 86.0 BLU

SLIPKIEPAEPTYS
The normalized value in BLU units [3]: 85.4 BLU

CAKSKSRPNTPGSD
The normalized value in BLU units [3]: 153.0 BLU

LSKLRLSPENPSNT
The normalized value in BLU units (SPOT analysis, Myo5 SH3) [2]: 157.2 BLU

DGKLKHIPRRPYEI
The normalized value in BLU units [4]: 306.6 BLU

IAGMLMVPESPRFL
The normalized value in BLU units [4]: 255.1 BLU

TYGFRVRPDFPVFG
The normalized value in BLU units [4]: 357.0 BLU

TSISRISPQDPEAK
The normalized value in BLU units (SPOT analysis, Myo5 SH3) [2]: 194.2 BLU

KTRNKPKPLWPQVK
The normalized value in BLU units (SPOT analysis, Myo5 SH3) [2]: 261.8 BLU

FEKRYYVPEDPSQD
The normalized value in BLU units [4]: 120.8 BLU

FESTLPIPTYPREG
The normalized value in BLU units (SPOT analysis, Myo5 SH3) [1]: 122.0 BLU

TVRTRRRPPPPPIP
The normalized value in BLU units (SPOT analysis, Myo5 SH3) [2]: 46234.4 BLU

RPSKFFHPPIPHIP
The normalized value in BLU units (SPOT analysis, Myo5 SH3) [1]: 776.9 BLU

MGLNKDVPHCPESL
The normalized value in BLU units (SPOT analysis, Myo5 SH3) [2]: 99.4 BLU

AGPRKYIPRAPAQG
The normalized value in BLU units [3]: 194.7 BLU

LWKPLVYPTCPSEH
The normalized value in BLU units (SPOT analysis, Myo5 SH3) [1]: 185.3 BLU

LQESKTVPQSPKKP
The normalized value in BLU units (SPOT analysis, Myo5 SH3) [2]: 159.2 BLU

EIAKRLQPGSPVLG
The normalized value in BLU units [3]: 172.5 BLU

CNYSKIFPGIPISL
The normalized value in BLU units (SPOT analysis, Myo5 SH3) [2]: 49.2 BLU

TNGPRYSPQNPRPF
The normalized value in BLU units [3]: 158.5 BLU

PQQNRPLPQLPNRN
The normalized value in BLU units [3]: 186.1 BLU

LNFPKNIPTIPFYV
The normalized value in BLU units (SPOT analysis, Myo5 SH3) [2]: 255.7 BLU

PPKLLVYPESPETN
The normalized value in BLU units [4]: 91.3 BLU

FVSPRRAPKPPSYP
The normalized value in BLU units [3]: 1581.6 BLU

TTRKKKDPNAPKRA
The normalized value in BLU units (SPOT analysis, Myo5 SH3) [2]: 274.6 BLU

HLFHLTTPQDPRLL
The normalized value in BLU units [4]: 245.7 BLU

SIIPRIFPSTPGTI
The normalized value in BLU units (SPOT analysis, Myo5 SH3) [2]: 368.8 BLU

SAYYLGLPVTPEDM
The normalized value in BLU units (SPOT analysis, Myo5 SH3) [1]: 215.1 BLU

PRSKKKKPAPPTLL
The normalized value in BLU units [3]: 412.9 BLU

LNKTKLLPQSPILN
The normalized value in BLU units [3]: 117.8 BLU

ATEAKCLPKIPSIP
The normalized value in BLU units [3]: 136.7 BLU

DLMALKYPYFPTKM
The normalized value in BLU units (SPOT analysis, Myo5 SH3) [1]: 139.1 BLU

ERDGRGVPLGPRNH
The normalized value in BLU units [4]: 121.3 BLU

KLDPLGEPFDPNKH
The normalized value in BLU units [4]: 275.7 BLU

LSFDRPPPLTPEKN
The normalized value in BLU units (SPOT analysis, Myo5 SH3) [2]: 174.4 BLU

AQKLKLLPEEPFQR
The normalized value in BLU units [3]: 400.9 BLU

AKTNKNVPVLPTPG
The normalized value in BLU units (SPOT analysis, Myo5 SH3) [2]: 130.3 BLU

ELRKLVQPITPIIK
The normalized value in BLU units (SPOT analysis, Myo5 SH3) [1]: 170.0 BLU

TSSLRKPPNGPSSV
The normalized value in BLU units [3]: 143.8 BLU

WLLPYSLPMHPGRW
The normalized value in BLU units (SPOT analysis, Myo5 SH3) [1]: 706.0 BLU

DEPIRYAPGDPIEK
The normalized value in BLU units (SPOT analysis, Myo5 SH3) [2]: 106.5 BLU

FANIKREPVHPEIR
The normalized value in BLU units [4]: 188.2 BLU

NALGLDPPPSPEDP
The normalized value in BLU units (SPOT analysis, Myo5 SH3) [1]: 240.8 BLU

ALNNWILPSTPHIQ
The normalized value in BLU units (SPOT analysis, Myo5 SH3) [1]: 169.3 BLU

KKKKKNGPGAPQGY
The normalized value in BLU units [3]: 328.8 BLU

LEFSHYAPTAPHVQ
The normalized value in BLU units (SPOT analysis, Myo5 SH3) [1]: 103.0 BLU

TEDGFVIPALPAAV
The normalized value in BLU units [4]: 290.4 BLU

TGKPRKTPRPPFPF
The normalized value in BLU units [4]: 1192.8 BLU

DIKTRSVPKIPSIE
The normalized value in BLU units [3]: 102.3 BLU

HFNTKKIPELPSQF
The normalized value in BLU units [3]: 466.9 BLU

PEDFLPPPPKPHFA
The normalized value in BLU units (SPOT analysis, Myo5 SH3) [1]: 125.8 BLU

EKNARGIPQAPFIE
The normalized value in BLU units [3]: 135.6 BLU

LQNAKNDPLPPVIE
The normalized value in BLU units (SPOT analysis, Myo5 SH3) [2]: 58.8 BLU

NEAPMLSPQRPYST
The normalized value in BLU units [4]: 111.3 BLU

EIPSKDHPYDPEKD
The normalized value in BLU units [3]: 51.8 BLU

TLDEKNLPRLPTPF
The normalized value in BLU units (SPOT analysis, Myo5 SH3) [2]: 205.2 BLU

HTIPKSGPIVPYVL
The normalized value in BLU units (SPOT analysis, Myo5 SH3) [2]: 163.7 BLU

REVDLPIPAQPGPP
The normalized value in BLU units (SPOT analysis, Myo5 SH3) [1]: 114.0 BLU

VLGVLNVPLPPQTR
The normalized value in BLU units (SPOT analysis, Myo5 SH3) [1]: 233.0 BLU

LEDALHVPTNPEIL
The normalized value in BLU units (SPOT analysis, Myo5 SH3) [1]: 191.1 BLU

TFRDMDLPQHPVIH
The normalized value in BLU units (SPOT analysis, Myo5 SH3) [1]: 188.2 BLU

DELLLMSPELPADL
The normalized value in BLU units (SPOT analysis, Myo5 SH3) [1]: 16.0 BLU

DKKKKKYPRKPKKN
The normalized value in BLU units [3]: 532.3 BLU

RLPSKTDPLDPHIK
The normalized value in BLU units [3]: 129.4 BLU

VASSRTEPSTPSRP
The normalized value in BLU units [3]: 178.5 BLU

KMSAKNTPKHPVDI
The normalized value in BLU units (SPOT analysis, Myo5 SH3) [2]: 307.2 BLU

AFWWKKNPKTPSDY
The normalized value in BLU units [3]: 65.0 BLU

EKESRHYPIKPPSP
The normalized value in BLU units [3]: 179.9 BLU

DRLSKIKPFLPQSI
The normalized value in BLU units (SPOT analysis, Myo5 SH3) [2]: 225.5 BLU

WLDEKRIPSTPIDY
The normalized value in BLU units (SPOT analysis, Myo5 SH3) [2]: 163.3 BLU

NEFAKFAPDLPVLK
The normalized value in BLU units [3]: 135.1 BLU

KELNLTGPKVPEDI
The normalized value in BLU units [4]: 102.4 BLU

GLMSKLGPNLPASI
The normalized value in BLU units (SPOT analysis, Myo5 SH3) [2]: 287.3 BLU

TSNTKWTPITPSVI
The normalized value in BLU units [3]: 141.7 BLU

KIVRRDYPSTPVIV
The normalized value in BLU units [4]: 366.1 BLU

PGGPKFEPLYPREE
The normalized value in BLU units (SPOT analysis, Myo5 SH3) [2]: 90.0 BLU

LPEELMRPKVPELL
The normalized value in BLU units (SPOT analysis, Myo5 SH3) [1]: 145.4 BLU

PPPPRRGPAPPPPP
The normalized value in BLU units [3]: 15026.4 BLU

EPIAHLFPPGPKNP
The normalized value in BLU units (SPOT analysis, Myo5 SH3) [1]: 356.3 BLU

YWGKKFEPERPFEF
The normalized value in BLU units (SPOT analysis, Myo5 SH3) [2]: 385.0 BLU

IEVPMEYPFKPPKM
The normalized value in BLU units [4]: 384.5 BLU

KAGSFGAPSSPTSG
The normalized value in BLU units [4]: 123.7 BLU

NPFPFPIPEIPSTQ
The normalized value in BLU units [4]: 86.5 BLU

VPPNFNAPPNPMAF
The normalized value in BLU units [4]: 1568.9 BLU

VEKRKFTPIEPSLL
The normalized value in BLU units [3]: 171.2 BLU

KLALHQYPNFPSEG
The normalized value in BLU units [4]: 130.3 BLU

TMKNKPKPTPPSPP
The normalized value in BLU units [3]: 909.8 BLU

KRNSKHAPFIPVKP
The normalized value in BLU units [3]: 381.6 BLU

AEFDLTDPEVPSFY
The normalized value in BLU units [4]: 165.8 BLU

NNSTRPIPAIPMDL
The normalized value in BLU units (SPOT analysis, Myo5 SH3) [2]: 247.2 BLU

SDNSKSEPLPPVIT
The normalized value in BLU units (SPOT analysis, Myo5 SH3) [2]: 130.5 BLU

NRKQRSIPLSPIVP
The normalized value in BLU units [3]: 490.7 BLU
